According to patent publication US20170112792A1, “ENHANCED ATRA-RELATED COMPOUNDS DERIVED FROM STRUCTURE-ACTIVITY RELATIONSHIPS AND MODELING FOR INHIBITING PIN1” (Beth Israel Deaconess Medical Center, Inc., priority 2014, published 2017):
“Also recorded” adds a separate entry of the source. Non-standard residues stand in square brackets, D forms with d. No end group written: not given here. d(pT) = C[C@H](OP(=O)(O)O)[C@@H](N)C(=O)O; Pip = O=C(O)[C@@H]1CCCCN1

Columns and labels:
GST-Pin1 [1] = target: T1, GST-Pin1 (Homo sapiens, UniProt Q13526); experiment: fluorescence polarization (FP) pTide competition assay / FP-HTS
Excerpt: This sequence was optimized for solubility and binding to GST-PPI. […] Measurements of fluorescence polarization and fluorescence absorbance were made in black 384-well plates (Corning) using a Synergy II plate reader. Compounds were transferred to plates using a custom-built Seiko pin-transfer robot at the Institute for Chemistry and Cell Biology at Harvard Medical School. The assay can tolerate up to 10%/o DMSO.
Molecules that compete with pTide for binding to the active site, e.g., Pin1 substrates, were detected under equilibrium conditions. A Z score was used to identify and rank those molecules that were most competitive with pTide (e.g., that have higher binding affinity). A Z score is defined as Z=(x−μ)/σ, where x is a raw score, μ is the mean of the population, and σ is the standard deviation of the population. Molecules with the most negative Z scores represent those with the highest Pin1 binding affinity. The Z′ value for this assay was around 0.70 and was consistent for day-to-day performance, with a coefficient of variation in the range of 4-5%.
A lower value of Ki is indicative of higher association and, accordingly, higher affinity of the substrate to the protein.

[2] = system: vector control or Rab2A-overexpressing HMLEs; experiment: BFA treatment of HMLE cells (ERGIC53 staining, Erk1/2 blots); type: cell-based, human; conditions: 10 μg/ml BFA
Excerpt: To elucidate how Rab2A overexpression or its Q58H mutation activates Erk1/2, we first examined whether Rab2A co-localized with Erk1/2. HMLE cells were starved and then stimulated by EGF to induce Erk1/2 phosphorylation. […] Overexpressing Rab2A Q58H at levels similar to the endogenous level also activated and colocalized with Erk1/2 like overexpressing WT Rab2A at 3 times higher levels (FIGS. 45A and 46A). To determine where Rab2A or its Q58H mutant colocalized with Erk1/2 at the perinuclear region, we performed double immunostaining Rab2A and ERGIC53, an ER-Golgi intermediate compartment (ERGIC) marker. Both Rab2A and its Q58H mutant colocalized with Erk1/2 at the ERGIC (FIG. 45B). Thus, overexpressed Rab2A or its Q58H mutant co-localizes with Erk1/2 and promotes Erk1/2 activation at the ERGIC. To examine whether Rab2A's vesicular trafficking function is associated with Erk activation, we used brefeldin A (BFA) to block the trafficking from the ERGIC to ER because BFA dissociates ADP ribosylation factor (ARF) effectors from Golgi and ERGIC membranes, leading to block in both anterograde and retrograde transport.

human APL NB4 cells = experiment: NB4 cell growth; type: cell-based; conditions: co-treatment with ATRA
Procedure: (§1) Absorbance was determined at 570 nm.

[3] = system: Pin1 and PML-RARα in NB4 cells; experiment: immunoblot of Pin1 and PML-RARα in APL NB4 cells; type: cell-based, human; conditions: for PML-RARα level in APL cells: 72 hours
Procedure: For immunoprecipitation and immunoblotting in the examples below, cells were polyethylenimine (PEI)- or lipofemamine-transfected with 8 μg of various plasmids, incubated in 10 cm dishes for 24 hours, and subsequently treatment with drugs as needed. […] After centrifugation at 13,000 g for 10 minutes, one tenth of the supernatant was stored as input, and the remainder was incubated 12 hours with M2 Flag agarose (Sigma). After brief centrifugation, immunoprecipitates were collected, extensively washed with the aforementioned lysis buffer twice, suspended in 2×SDS sample buffer (100 mM Tris-HCl, pH 6.8, 4% SDS, 5% β-mercaptoethanol, 20% glycerol, and 0.1% bromphenol blue), boiled for 10 minutes, and subjected to immunoblotting analysis. […] After electrophoresis, gel was transferred to nitrocellulose membranes using a semidry transfer cell. The transblotted membrane was washed twice with Tris-buffered saline containing 0.1% Tween 20 (TBST). After blocking with TBST containing 5% bovine serum albumin (BSA) for 1 hour, the membrane was incubated with the appropriate primary antibody (diluted 1:1000) in 2% BSA-containing TBST at 4° C. overnight. After incubation with the primary antibody, the membrane was washed three times with TBST for a total of 30 minutes followed by incubation with horseradish peroxidase (HRP)-conjugated goat anti-rabbit or anti-mouse IgG (diluted 1:2500) for 1 hour at room temperature. After three extensive washes with TBST for a total of 30 minutes, the immunoblots were visualized by enhanced chemiluminescence.

RAR = experiment: transactivation of RAR downstream target genes
[4] = system: human normal and breast cancer cell lines; experiment: cell growth of human normal and breast cancer cell lines; type: cell-based
Procedure: as §1
To test this possibility, we chose breast cancer as a model due to the substantial oncogenic role of Pin1 in vitro and in vivo.

[5] = system: APL cells isolated from hCG-PML-RARα transgenic mice
NB4 cells = experiment: APL cell differentiation in NB4 cells (Giemsa, FACS CD14/CD11b); type: cell-based, human; conditions: 72 hours
[6] = cited from earlier work
GST-FKBP12 = GST-FKBP12 (Homo sapiens, UniProt P62942); experiment: chymotrypsin coupled PPlase activity assay, FKBP12; type: biochemical
GST-Pin1 [7] = target: T1, GST-Pin1; experiment: chymotrypsin coupled PPlase activity assay, Pin1; type: biochemical
Excerpt: where Km is the Michaelis constant for the used substrate, S is the initial concentration of the substrate in the assay, and the IC50 value is of the inhibitor.

GST-cyclophilin = experiment: chymotrypsin coupled PPlase activity assay, cyclophilin

T1 sequence (Q13526 whole entry): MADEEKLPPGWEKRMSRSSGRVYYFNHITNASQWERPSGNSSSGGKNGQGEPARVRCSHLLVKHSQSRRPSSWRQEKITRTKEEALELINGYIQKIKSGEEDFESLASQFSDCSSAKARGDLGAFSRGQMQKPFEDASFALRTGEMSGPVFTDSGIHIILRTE
GST-FKBP12, sequence (P62942 whole entry): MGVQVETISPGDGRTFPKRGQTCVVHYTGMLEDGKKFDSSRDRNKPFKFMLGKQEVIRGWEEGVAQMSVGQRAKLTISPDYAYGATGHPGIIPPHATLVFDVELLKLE

## COc1cc(C)c(/C=C/C(C)=C/C=C/C(C)=C/C(=O)O)c(C)c1C [acitretin]
GST-Pin1 [1]
  Pin1 binding in FP assay: moderate binding

## CC1=C(/C=C/C(C)=C/C=C/C(C)=C/CO)C(C)(C)CCC1 [retinol]
GST-Pin1 [1]
  Pin1 binding in FP assay: totally inactive

## O=C(O)Cc1c[nH]c2ccccc12 [indo-3-acetic acid]
GST-Pin1 [1]
  Pin1 binding in FP assay: neither pravastatin nor indo-3-acetic acid demonstrated any binding

## CC1=C(/C=C/C(C)=C/C=C/C(C)=C/C(=O)Nc2ccc(O)cc2)C(C)(C)CCC1 [fenretinide]
GST-Pin1 [1]
  Pin1 binding in FP assay: less potent than ATRA

## C[C@H]1CCC/C=C/[C@@H]2C[C@H](O)C[C@H]2[C@H](O)/C=C/C(=O)O1 [BFA, brefeldin A]
[2]
  Erk phosphorylation: did not obviously affect Erk phosphorylation
[2]; 30 min
  ERGIC structure (ERGIC53 staining): ERGIC structures were damaged

## CCCCCCCOc1cc2c(cc1/C(C)=C/c1ccc(C(=O)O)cc1)C(C)(C)CCS2(=O)=O [Ro-415253]
Human APL NB4 cells
  rescue of NB4 cell proliferation suppressed by ATRA: unable to rescue NB4 cell proliferation suppressed by ATRA
[3]; co-treatment with ATRA
  restoration of ATRA-mediated Pin1 degradation: unable to restore ATRA-mediated Pin1 degradation
RAR
  transactivation of RAR downstream target genes: suppresses it
[4]; breast cancer cells (T47D)
  effect on the ability of ATRA to induce Pin1 degradation or inhibit cell growth: no obvious effects
GST-Pin1 [1]
  Pin1 binding in FP assay: minimal Pin1 binding

## O=C(O[C@@H]1Cc2c(O)cc(O)cc2O[C@@H]1c1cc(O)c(O)c(O)c1)c1cc(O)c(O)c(O)c1 [EGCG]
[3]
  Pin1 degradation in NB4 cells: inhibited Pin1 without degrading it
  PML-RARα level in APL cells: dose-dependently reduced PML-RARα
[5]; mouse, in vivo
  condition of treated mice (toxic effects): rather sick
[5]; same regimens
  PML-RARα in the bone marrow: effectively reduced PML-RARα
  spleen weights: nearly at basal levels
NB4 cells
  APL cell differentiation: neither Pin1 inhibitors nor Pin1 KD induced APL cell differentiation

## CC1=C(/C=C/C(C)=C/C=C/C(C)=C/C=O)C(C)(C)CCC1 [retinal]
GST-Pin1 [1]
  Pin1 binding in FP assay: totally inactive

## Bth-D-phos.Thr-Pip-Nal ([Bth][d(pT)][Pip][Nal]) [pTide]
[6]
  cell permeability: low cell permeability
GST-Pin1 [1]; Pin1 PPlase domain vs WW domain vs FKBP12
  binding selectivity: selectively binds Pin1 at its PPlase domain and does not bind to the WW domain of Pin1 or to FKBP12

## CC1(C)CCC(C)(C)c2cc(NC(=O)c3ccc(C(=O)O)cc3)ccc21 [tamibarotene]
GST-Pin1 [1]
  Pin1 binding in FP assay: moderate binding

## CC(=O)OC/C=C(C)/C=C/C=C(C)/C=C/C1=C(C)CCCC1(C)C [retinyl acetate]
GST-Pin1 [1]
  Pin1 binding in FP assay: totally inactive

## C=C(c1ccc(C(=O)O)cc1)c1cc2c(cc1C)C(C)(C)CCC2(C)C [bexarotene]
GST-Pin1 [1]
  Pin1 binding in FP assay: marginal binding; also recorded: less potent than ATRA

## CC1=C(/C=C/C(C)=C/C=C/C(C)=C\C(=O)O)C(C)(C)CCC1 [13cRA, (2Z,4E,6E,8E)-3,7-dimethyl-9-(2,6,6-trimethylcyclohexen-1-yl)nona-2,4,6,8-tetraenoic acid]
GST-FKBP12
  inhibition of FKBP12: did not inhibit
GST-Pin1 [7]
  inhibition of PPlase activity of Pin1: fully inhibited
GST-Pin1 [7]; Cheng-Prusoff equation, read-out: Ki from PPlase assay
  Ki: 2370 nM
GST-Pin1 [1]
  Ki: 1160 nM
GST-Pin1 [1]; 24 hours incubation vs 0.5 hours
  binding to Pin1 in FP assay after longer incubation: difference in binding between 13cRA and ATRA disappears after a longer incubation
GST-Pin1 [1]; ~8200 compounds screened, competition with pTide
  Z score in FP-HTS: lowest Z score
GST-cyclophilin
  inhibition of cyclophilin: did not inhibit

## CCOC(=O)CN1C(=O)c2ccc3c4c(ccc(c24)C1=O)C(=O)N(CC(=O)OCC)C3=O [PiB]
[3]
  Pin1 degradation in NB4 cells: inhibited Pin1 without degrading it
  PML-RARα level in APL cells: dose-dependently reduced PML-RARα
NB4 cells
  APL cell differentiation: neither Pin1 inhibitors nor Pin1 KD induced APL cell differentiation

## Clc1cccc(C(c2ccc3[nH]cnc3c2)n2ccnc2)c1 (stereo not shown) [liarazole]
[4]; AU565 or SKBR3 cells
  combination effect with ATRA on inhibition of cell proliferation: generally additive effects with ATRA
